From patent US20220213047A1, “CARBONIC ANHYDRASE INHIBITORS FOR TREATMENT OF NEISSERIA GONORRHOEAE INFECTION” (Purdue Research Foundation, priority 2021, published 2022)
Read-outs that look alike come from different tables or passages of the source.

Experiments:
N. gonorrhoeae = assay: MIC by agar dilution on a larger panel of N. gonorrhoeae strains; assay type: cell-based, Neisseria gonorrhoeae; conditions: for MIC / MIC50 / MIC90: Neisseria gonorrhoeae; for Original MIC: in brackets in Table 8
Protocol: These tests were performed in normal culture conditions with standard CO2 levels and in CO2 (5% in incubator) conditions.

Klebsiella spp. = assay: MIC50 against pathogenic and commensal bacteria: Klebsiella spp.; assay type: cell-based; conditions: Klebsiella spp. (4 strains); normal
Source text: (§1) We have shown that CAIs display a narrow-spectrum of activity (Table 6). We have previously shown that CAIs have potential as anti-enterococcal agents for decolonization of the gut and treating systemic vancomycin-resistant enterococci (VRE) infections without affecting commensal strains common in the human microbiome or other pathogenic bacteria. […] The extremely narrow spectrum of this class of inhibitors would be a positive for clinical use as the molecules: 1) would not have deleterious effects on normal microbiota, and 2) would have less opportunity for resistance to arise to other important pathogenic strains aside from VRE.

Bacteroides = assay: MIC50 against pathogenic and commensal bacteria: Bacteroides; assay type: cell-based; conditions: Bacteroides (9 strains); normal
Source text: as §1

[1] = strain panel of Table 9, CO2 (5% CO2 containing air)

CCOc1ccc2nc(S(N)(=O)=O)sc2c1 [Ethoxzolamide]
> 256 µg/mL: MIC50 (Klebsiella spp.) | MIC50 (Bacteroides)
0.25 µg/mL: MIC (N. gonorrhoeae; N. gonorrhoeae 184, Non CO2 (ambient air), read-out: MIC) | MIC (N. gonorrhoeae; N. gonorrhoeae 194, Non CO2 (ambient air), read-out: MIC) | MIC (N. gonorrhoeae; N. gonorrhoeae 197, Non CO2 (ambient air), read-out: MIC) | MIC (N. gonorrhoeae; N. gonorrhoeae 198, Non CO2 (ambient air), read-out: MIC) | MIC (N. gonorrhoeae; N. gonorrhoeae 200, Non CO2 (ambient air), read-out: MIC) | MIC (N. gonorrhoeae; N. gonorrhoeae 212, Non CO2 (ambient air), read-out: MIC) | MIC (N. gonorrhoeae; N. gonorrhoeae 214, Non CO2 (ambient air), read-out: MIC) | Original MIC (N. gonorrhoeae; Ng 197)
32 µg/mL: MIC (N. gonorrhoeae; N. gonorrhoeae 183, CO2 (5% CO2 containing air), read-out: MIC) | MIC (N. gonorrhoeae; N. gonorrhoeae 184, CO2 (5% CO2 containing air), read-out: MIC)
64 µg/mL: MIC (N. gonorrhoeae; N. gonorrhoeae 185, CO2 (5% CO2 containing air), read-out: MIC) | MIC (N. gonorrhoeae; N. gonorrhoeae 186, CO2 (5% CO2 containing air), read-out: MIC) | MIC (N. gonorrhoeae; N. gonorrhoeae 188, CO2 (5% CO2 containing air), read-out: MIC) | MIC (N. gonorrhoeae; N. gonorrhoeae 193, CO2 (5% CO2 containing air), read-out: MIC) | MIC (N. gonorrhoeae; N. gonorrhoeae 194, CO2 (5% CO2 containing air), read-out: MIC) | MIC (N. gonorrhoeae; N. gonorrhoeae 203, CO2 (5% CO2 containing air), read-out: MIC) | MIC (N. gonorrhoeae; N. gonorrhoeae 207, CO2 (5% CO2 containing air), read-out: MIC) | MIC (N. gonorrhoeae; N. gonorrhoeae 210, CO2 (5% CO2 containing air), read-out: MIC) | MIC (N. gonorrhoeae; N. gonorrhoeae 211, CO2 (5% CO2 containing air), read-out: MIC) | MIC (N. gonorrhoeae; N. gonorrhoeae 212, CO2 (5% CO2 containing air), read-out: MIC) | MIC (N. gonorrhoeae; N. gonorrhoeae 213, CO2 (5% CO2 containing air), read-out: MIC) | MIC (N. gonorrhoeae; N. gonorrhoeae 214, CO2 (5% CO2 containing air), read-out: MIC)
> 128 µg/mL: MIC (N. gonorrhoeae; N. gonorrhoeae 191, CO2 (5% CO2 containing air), read-out: MIC) | MIC (N. gonorrhoeae; N. gonorrhoeae 196, CO2 (5% CO2 containing air), read-out: MIC) | MIC (N. gonorrhoeae; N. gonorrhoeae 198, CO2 (5% CO2 containing air), read-out: MIC) | MIC (N. gonorrhoeae; N. gonorrhoeae 200, CO2 (5% CO2 containing air), read-out: MIC) | MIC (N. gonorrhoeae; N. gonorrhoeae 206, CO2 (5% CO2 containing air), read-out: MIC) | MIC (N. gonorrhoeae; N. gonorrhoeae 208, CO2 (5% CO2 containing air), read-out: MIC) | MIC (N. gonorrhoeae; N. gonorrhoeae 209, CO2 (5% CO2 containing air), read-out: MIC) | MIC50 (N. gonorrhoeae; N. gonorrhoeae (39 strains), CO2 (5% CO2 in the incubator)) | MIC50 (N. gonorrhoeae; [1]) | MIC90 (N. gonorrhoeae; [1]) | MIC (N. gonorrhoeae; strain panel of Table 9, CO2 (5% CO2 containing air), read-out: Modal MIC)
0.5 µg/mL: MIC (N. gonorrhoeae; N. gonorrhoeae 211, Non CO2 (ambient air), read-out: MIC) | MIC90 (N. gonorrhoeae; strain panel of Table 9, Non CO2 (ambient air, standard CO2 conditions))
128 µg/mL: MIC (N. gonorrhoeae; N. gonorrhoeae 197, CO2 (5% CO2 containing air), read-out: MIC) | MIC (N. gonorrhoeae; N. gonorrhoeae 202, CO2 (5% CO2 containing air), read-out: MIC) | MIC (N. gonorrhoeae; N. gonorrhoeae 205, CO2 (5% CO2 containing air), read-out: MIC)
0.06 µg/mL: MIC (N. gonorrhoeae; N. gonorrhoeae 188, Non CO2 (ambient air), read-out: MIC) | MIC (N. gonorrhoeae; N. gonorrhoeae 191, Non CO2 (ambient air), read-out: MIC) | MIC (N. gonorrhoeae; N. gonorrhoeae 202, Non CO2 (ambient air), read-out: MIC) | MIC (N. gonorrhoeae; N. gonorrhoeae 209, Non CO2 (ambient air), read-out: MIC) | Original MIC (N. gonorrhoeae; Ng 202)
